Measurements published in US10955415B2, “CD247 as a biomarker for assessing the effect of chemotherapeutic and biological drugs” (YISSUM RESEARCH DEVELOPMENT COMPANY OF THE HEBREW …, priority 2011, dated 2021).
Entries after “also recorded” stand apart in the source; their conditions may differ.

Tests used:
TNFα, IL-6, IFNγ = assay: Real Time PCR of inflammatory cytokines in MDSCs and total splenocytes; type: in vivo, mice; conditions: relative to inflamed untreated; for mRNA levels of TNFα and IL-6: spleen-derived MDSCs and total splenocytes
MDSCs (Gr1+CD11b+) [1] = tested on: MDSCs (Gr1+CD11b+); design: species or system mice; conditions: mouse, in vivo
[2] = tested on: CD11b+CD11c+ and CD11b+F4/80+ cells; assay: Myeloid differentiation state in spleen (DCs, macrophages, APC maturation); type: in vivo; conditions: BCG-inflamed mice
From the text: FIG. 18A-18E. Splenocytes and PBLs from mice untreated (naïve), inflamed, or inflamed and treated with 5-FU or CPT-11 were fixed, permeabilized, and double stained for the expression of CD247 (ζ-chain) (FIGS. 18A, 18B) and CD3ε-chain (FIGS. 18D, 18E), as shown by mean fluorescence intensity (MFI), measured in gated CD3^+ cells. FIG. 18C: Splenocytes from mice, naïve, inflamed and inflamed treated with 5-FU or CPT-11, were labeled with CFSE and activated with anti-CD3 and anti-CD28 antibodies or left non-activated. The proliferative response was assessed by monitoring cell divisions of gated CFSE-labeled Thy1.2+ (CD90+) T-cells. The percent of proliferating cells was calculated and compared to steady state levels of non-activated cells per each group. Data from three independent experiments is presented (n=3). Statistical analyses using t test indicated significant differences at 95%. Means and SEM are shown. *, P<0.05; **, P<0.01. FIG. 18F-18I. For the detection of myeloid differentiation state, splenocytes from each group were stained for (18F) DC11b^+CD11c^+ cells (representing DCs), (18G) DC11b^+F4/80^+ cells (representing monocytes), (18H) CD11c^+MHCII^+CD80^+ cells (representing fully differentiated […] as antigen presenting cells) and (18I) F4/80^+MHCII^+CD80^+ cells (representing fully differentiated […] as antigen presenting cells). Data from three independent experiments (n=4) is presented. Statistical analyses using t test indicated significant differences at 95%. Means and SEM are shown. *, P<0.05; **, P<0.01; ***, P<0.001. Abbreviations: Nor. (normal), Rel. (relative), Inf. (inflamed), ce. Pro. (cell proliferation)
Isolated splenocytes and peripheral blood leukocytes (PBLs) were treated with erythrocyte lysis buffer and washed in PBS. Cells were pre-coated with anti-CD16/CD32 (Biolegend) for FcR blockage. For surface staining, cells were incubated for 30 min at 4° C. with FITC-labeled anti-Gr1, anti-CD11c, and anti-CD4; PE-labeled anti F4/80, anti-CD3ε, anti-CD45R/B220, and anti-mNKp46; and biotinylated anti-CD11b and anti-CD8 that were detected with streptavidin-Cy5 (Biolegend and eBioscience). Intracellular staining of CD247 cells was performed by subjecting the cells to fixation with paraformaldehyde (1%) for 20 min at 4° C., followed by washing and permeabilization for 10 min with saponin detergent (0.1%) at room temperature (RT). Cells were then washed and incubated with FITC-labeled monoclonal anti-CD247 (H146) (Abcam), or biotinylated monoclonal anti-CD247 (H146), which were subsequently detected with streptavidin-Cy5. FoxP3 staining was performed according to the manufacturer's instructions. Samples were analyzed using FACSCalibur with Cell Quest software (BD).

CD247 (ζ-chain) = assay: CD247 expression in spleen and PBLs, CRC mouse model; type: in vivo; conditions: CRC (AOM/DSS) mice, vs untreated CRC-bearing mice
From the text: Means and SEM are shown. *, P<0.05; **, P<0.01. […] (normal).

MDSCs (Gr1+CD11b+) [3] = assay: MDSC accumulation in spleen and PBLs, AOM/DSS colorectal cancer (CRC) mouse model; type: in vivo; conditions: CRC (AOM/DSS) mice, i.p., vs untreated CRC group
From the text: The mouse model for CRC was used as described in Experimental procedures. […] Mice were sacrificed at week +11, three weeks after the second DSS treatment. […] Graphs represent the percent of MDSCs presented within the spleen (FIG. 21A) and PBLs (FIG. 21C). Data from three independent experiments (n=3) is presented. […] Means and SEM are shown. *, P<0.05; **, P<0.01; ***, P<0.001.
The mouse model for CRC was established by two repeated injections of azoxymethane (AOM) (Sigma) in intervals of two weeks followed by two weekly administrations of DSS (Sigma) that was added to drinking water every two weeks for duration of about seven days. […] Mice were sacrificed at week +11, three weeks after the second DSS treatment.

CD247 = assay: Adoptive transfer of CFSE-labeled normal splenocytes, CD247 in host and donor cells; type: in vivo, mice; conditions: BCG-inflamed hosts, 24 h after transfer, spleen
Method: CFSE-labeled splenocytes from normal mice (donor cells) were adoptively transferred into mice untreated, inflamed, and inflamed treated i.p. with irinotecan (hosts). After 24 h, splenocytes from each group were harvested and stained for CD247 expression (MFI) in CD3+ T cells within the CFSE+ (donor-cell) or CFSE− (host-cell) population. Data from three independent experiments (n=4) is presented. Statistical analyses using t test indicated significant differences at 95% Cl. Means and SEM are shown. * P<0.05. Abbreviations: Ho. (host), Do. (donor), cont. (control).
CFSE-labeled splenocytes from normal mice (donor cells) were adoptively transferred into non-inflamed, inflamed, and inflamed mice treated i.p. with 5-FU (hosts). After 24 h, splenocytes from each group were harvested and stained for CD247 expression (MFI) in CD3+ T cells within the CFSE+ (donor-cell) or CFSE− (host-cell) population. Data from three independent experiments (n=4) is presented. Statistical analyses using t test indicated significant differences at 95% Cl. Means and SEM are shown. *, P<0.05. Abbreviations: Ho. (host), Do. (donor), cont. (control).
Next, the effect of etanercept treatment on the host's immune status as well as on adoptively transferred T- and NK-cells was examined. It should be noted that adoptively transferred T- and NK-cells being a treatment that is frequently used today in different immunotherapeutic regiments for various pathologies. To this end, CFSE-labeled normal splenocytes were administered, i.v., 1 day before cell harvest, at the peak of the inflammatory response (mimicking cell mediated therapies).

CD247 (ζ chain) = tested on: CD247 (ζ chain); design: species or system mice; conditions: mouse, in vivo
MDSCs [4] = assay: NO production of MDSCs in colon epithel and lamina propria, CRC mouse model; type: in vivo; conditions: CRC-bearing mice, gated on MDSCs
cleaved caspase-3 = assay: Cleaved caspase-3 in splenic MDSCs (flow cytometry); type: in vivo; conditions: BCG-inflamed mice
From the text: FIG. 17F. […] Means and SEM are shown. *, P<0.05; **, P<0.01. Abbreviations: Inf. (inflamed), Tot. sp. (total spleen), sp (spleen), g. (gated), Norm. (normal).

MDSCs [5] = assay: NO and ROS production gated on MDSCs, CRC mouse model; type: in vivo; conditions: CRC-bearing mice, splenocytes
Method: Splenocytes isolated from normal mice, CRC mice or CRC mice treated with 5-FU alone or in a combination with CPT11 (n=5) were analyzed for nitric oxide (NO, FIG. 23A) and reactive oxygen species (ROS, FIG. 23B) production, both by flow cytometry analysis gaiting on the MDSCs (Gr1+CD11b+) population. Histograms represent production levels, as shown by mean fluorescence intensity (MFI). Data from three independent experiments (n=3) are presented. Statistical analyses using t test indicate significant differences at 95%. Means and SEM are shown. *, P<0.05; **, P<0.01. Abbreviations: Norm. (normal), g. (gated).

SMILES | mRNA level of IFNγ (TNFα, IL-6, IFNγ; MDSCs and total spleen-population) | mRNA levels of TNFα and IL-6 (TNFα, IL-6, IFNγ) | MDSC levels in peripheral blood (PBLs) (MDSCs (Gr1+CD11b+) [1]) | MDSC levels in the spleen (MDSCs (Gr1+CD11b+) [1]) | differentiated myeloid cells in spleen (CD11b+CD11c+ DCs, CD11b+F4/80+ macrophages) [2] | CD247 expression levels in spleen and blood (CD247 (ζ-chain)) | MDSC percentage in PBLs (MDSCs (Gr1+CD11b+) [3]) | MDSC percentage in spleen (MDSCs (Gr1+CD11b+) [3]) | CD247 expression in host and adoptively transferred donor T cells (CD247) | CD247 expression in T cells, PBLs (CD247 (ζ chain)) | CD247 expression in T cells, spleen (CD247 (ζ chain)) | NO production in epithel and lamina propria (MDSCs [4]) | cleaved caspase-3 expression in spleen-derived MDSCs (cleaved caspase-3) | NO and ROS production (MDSC suppressive activity) (MDSCs [5]) | maturation of antigen presenting cells (CD80 and MHCII expression) [2]
CCc1c2c(nc3ccc(OC(=O)N4CCC(N5CCCCC5)CC4)cc13)-c1cc3c(c(=O)n1C2)COC(=O)[C@]3(O)CC [Irinotecan] | decreased | no significant changes | remained high; also recorded: no changes | significantly enhanced; also recorded: significantly increased | blockage of the myeloid cell differentiation and maturation | low as in the case of CRC-bearing, non-treated mice | no changes | significantly increased | significant further decrease | further significantly decreased; also recorded: tendency of decreased expression | further significantly decreased; also recorded: strong down-regulation | – | – | – | –
O=c1[nH]cc(F)c(=O)[nH]1 [5-FU, 5-Fluorouracil] | – | no significant changes | significant decline; also recorded: decrease; also recorded: reduced | significant decline; also recorded: decrease; also recorded: reduced | significant turning towards differentiated myeloid population | significantly recovered | significant decrease | significant decrease | clear significant increase | significant recovery | recovered significantly; also recorded: significant recovery | reduced | significant increase | decreased the suppressive activity | enhanced the maturation
